Measured values taken from patent US20100285959A1, “HERBICIDAL MIXTURES” (priority 2006, published 2010).

What was measured:
giant foxtail (SETFA) = assay: Test 26 field trial, postemergence; format: in vivo, Setaria faberi; design: scale not given here
Description: (§1) Corn seeds (hybrid ‘Pioneer 31G96’) were planted in mid spring season, 3.8 cm deep in a silt loam soil having 2% organic matter and a pH of 6.6. Plots were 6.1 m long by 3.0 m wide with rows spaced 76 cm apart. Seeds were spaced 15 cm apart within the rows. The field was managed using conventional tillage practices. […] All treatments also included a surfactant. […] Some of the weed species could not be evaluated at every timing. […] Results are the means of the three replicates.

[1] = system: common lambsquarters (CHEAL); assay: Test 26 field trial, postemergence; format: in vivo, Chenopodium album; design: scale not given here
Description: as §1

[2] = system: ivyleaf morningglory (IPOHE); assay: Test 26 field trial, postemergence; format: in vivo, Ipomoea hederacea; design: scale not given here
Description: as §1

kochia (KCHSC) = assay: Test 27 field trial, postemergence; format: in vivo, Kochia scoparia; design: scale not given here; details: thifensulfuron-methyl 10 g a.i./ha
Description: (§2) Wheat seeds (cv. ‘Custer’) were planted in late fall season in a clay loam soil. Plots were 9 m long by 1.8 m wide. The field was managed using conventional tillage practices. […] All treatments also included a surfactant. […] Results are the means of the three replicates.

common ragweed (AMBEL) = assay: Test 26 field trial, postemergence; format: in vivo, Ambrosia artemisiifolia; design: scale not given here
Description: as §1

giant ragweed (AMBTR) = assay: Test 26 field trial, postemergence; format: in vivo, Ambrosia trifida
Description: as §1

velvetleaf (ABUTH) = assay: Test 26 field trial, postemergence; format: in vivo, Abutilon theophrasti; design: scale not given here
Description: as §1

[3] = system: Pennsylvania smartweed (POLPY); assay: Test 26 field trial, postemergence; format: in vivo, Polygonum pensylvanicum
Description: as §1

corn (ZEAMD) = assay: Test 26 field trial, postemergence; format: in vivo, Zea mays ssp. indentata; details: hybrid Pioneer 31G96, Zea mays ssp. indentata (corn), in vivo
Description: as §1

winter wheat (TRZAW) = assay: Test 27 field trial, postemergence; format: in vivo, Triticum aestivum; details: cv. Custer, Triticum aestivum (winter wheat), in vivo
Description: as §2

jimsonweed (DATST) = assay: Test 26 field trial, postemergence; format: in vivo, Datura stramonium; details: 28 DAA
Description: as §1

With COC(=O)c1sccc1S(=O)(=O)NC(=O)Nc1nc(C)nc(OC)n1 [Thifensulfuron-methyl] the “SETFA Obs” value (giant foxtail (SETFA); 28 DAA, 2 g a.i./ha) was 87, the “SETFA Obs” value (giant foxtail (SETFA); 28 DAA, 4 g a.i./ha) was 88 and the “SETFA Obs” value (giant foxtail (SETFA); 28 DAA, 8 g a.i./ha) was 82. The “SETFA Obs” value (giant foxtail (SETFA); 56 DAA, 2 g a.i./ha) was 0, the “SETFA Obs” value (giant foxtail (SETFA); 56 DAA, 4 g a.i./ha) was 23 and the “SETFA Obs” value (giant foxtail (SETFA); 56 DAA, 8 g a.i./ha) was 13. The “CHEAL Obs” value ([1]; 14 DAA, 2 g a.i./ha) was 65, the “CHEAL Obs” value ([1]; 14 DAA, 4 g a.i./ha) was 83 and the “CHEAL Obs” value ([1]; 14 DAA, 8 g a.i./ha) was 80. For the same compound, the “CHEAL Obs” value ([1]; 28 DAA, 2 g a.i./ha) was 90, the “CHEAL Obs” value ([1]; 28 DAA, 4 g a.i./ha) was 93 and the “CHEAL Obs” value ([1]; 28 DAA, 8 g a.i./ha) was 98. The “CHEAL Obs” value ([1]; 56 DAA, 2 g a.i./ha) was 27, the “CHEAL Obs” value ([1]; 56 DAA, 4 g a.i./ha) was 50 and the “CHEAL Obs” value ([1]; 56 DAA, 8 g a.i./ha) was 93. For the same compound, the “IPOHE Obs” value ([2]; 14 DAA, 2 g a.i./ha) was 57, the “IPOHE Obs” value ([2]; 14 DAA, 4 g a.i./ha) was 72 and the “IPOHE Obs” value ([2]; 14 DAA, 8 g a.i./ha) was 73. The “IPOHE Obs” value ([2]; 28 DAA, 2 g a.i./ha) was 17, the “IPOHE Obs” value ([2]; 28 DAA, 4 g a.i./ha) was 20 and the “IPOHE Obs” value ([2]; 28 DAA, 8 g a.i./ha) was 45. The “IPOHE Obs” value ([2]; 56 DAA, 2 g a.i./ha) was 0, the “IPOHE Obs” value ([2]; 56 DAA, 4 g a.i./ha) was 0 and the “IPOHE Obs” value ([2]; 56 DAA, 8 g a.i./ha) was 20. For the same compound, the “KCHSC Obs” value (kochia (KCHSC); 16 DAA) was 0, the “KCHSC Obs” value (kochia (KCHSC); 28 DAA) was 0 and the “KCHSC Obs” value (kochia (KCHSC); 49 DAA) was 0. For the same compound, the “AMBEL Obs” value (common ragweed (AMBEL); 14 DAA, 2 g a.i./ha) was 55, the “AMBEL Obs” value (common ragweed (AMBEL); 14 DAA, 4 g a.i./ha) was 72 and the “AMBEL Obs” value (common ragweed (AMBEL); 14 DAA, 8 g a.i./ha) was 76. The “AMBEL Obs” value (common ragweed (AMBEL); 28 DAA, 2 g a.i./ha) was 23, the “AMBEL Obs” value (common ragweed (AMBEL); 28 DAA, 4 g a.i./ha) was 53 and the “AMBEL Obs” value (common ragweed (AMBEL); 28 DAA, 8 g a.i./ha) was 43. For the same compound, the “AMBEL Obs” value (common ragweed (AMBEL); 56 DAA, 2 g a.i./ha) was 0, the “AMBEL Obs” value (common ragweed (AMBEL); 56 DAA, 4 g a.i./ha) was 17 and the “AMBEL Obs” value (common ragweed (AMBEL); 56 DAA, 8 g a.i./ha) was 25. For the same compound, the “AMBTR Obs” value (giant ragweed (AMBTR); 14 DAA, 2 g a.i./ha) was 75, the “AMBTR Obs” value (giant ragweed (AMBTR); 28 DAA, 2 g a.i./ha) was 5 and the “AMBTR Obs” value (giant ragweed (AMBTR); 28 DAA, 4 g a.i./ha) was 5. For the same compound, the “ABUTH Obs” value (velvetleaf (ABUTH); 14 DAA, 2 g a.i./ha) was 53, the “ABUTH Obs” value (velvetleaf (ABUTH); 14 DAA, 4 g a.i./ha) was 60 and the “ABUTH Obs” value (velvetleaf (ABUTH); 14 DAA, 8 g a.i./ha) was 55. For the same compound, the “ABUTH Obs” value (velvetleaf (ABUTH); 28 DAA, 2 g a.i./ha) was 75, the “ABUTH Obs” value (velvetleaf (ABUTH); 28 DAA, 4 g a.i./ha) was 79 and the “ABUTH Obs” value (velvetleaf (ABUTH); 28 DAA, 8 g a.i./ha) was 87. For the same compound, the “ABUTH Obs” value (velvetleaf (ABUTH); 56 DAA, 2 g a.i./ha) was 33, the “ABUTH Obs” value (velvetleaf (ABUTH); 56 DAA, 4 g a.i./ha) was 30 and the “ABUTH Obs” value (velvetleaf (ABUTH); 56 DAA, 8 g a.i./ha) was 73. The “POLPY Obs” value ([3]; 14 DAA, 8 g a.i./ha) was 0, the “POLPY Obs” value ([3]; 28 DAA, 2 g a.i./ha) was 73 and the “POLPY Obs” value ([3]; 28 DAA, 4 g a.i./ha) was 100. The “POLPY Obs” value ([3]; 28 DAA, 8 g a.i./ha) was 100, the “ZEAMD Obs” value (corn (ZEAMD); 14 days after application) was 0 and the “ZEAMD Obs” value (corn (ZEAMD); 56 days after application) was 0. For the same compound, the “TRZAW Obs” value (winter wheat (TRZAW); 16 days after application) was 0, the “TRZAW Obs” value (winter wheat (TRZAW); 28 days after application) was 0 and the “TRZAW Obs” value (winter wheat (TRZAW); 49 days after application) was 0. For the same compound, the “DATST Obs” value (jimsonweed (DATST); 2 g a.i./ha) was 40, the “DATST Obs” value (jimsonweed (DATST); 4 g a.i./ha) was 87 and the “DATST Obs” value (jimsonweed (DATST); 8 g a.i./ha) was 83.
